# Test results taken from patent US20090069320A1, “Substituted 4-Amino-Quinazoline Compounds with Metabotropic Glutamate Receptor Regulating Activity and Uses Thereof” (Gruenenthal GmbH, priority 2006, published 2009).
# Counter-ions that a name gives are not always drawn.
# Biological target: T1, mGluR5 receptor (Sus scrofa, UniProt I3LUI7)
# T1 construct: 450 μg of protein from brain homogenate with 5 nM ^3[H]-MPEP; from tissue; host or cells: pig brain halves without medulla, cerebellum and pons
# T1 sequence (I3LUI7 19-1212): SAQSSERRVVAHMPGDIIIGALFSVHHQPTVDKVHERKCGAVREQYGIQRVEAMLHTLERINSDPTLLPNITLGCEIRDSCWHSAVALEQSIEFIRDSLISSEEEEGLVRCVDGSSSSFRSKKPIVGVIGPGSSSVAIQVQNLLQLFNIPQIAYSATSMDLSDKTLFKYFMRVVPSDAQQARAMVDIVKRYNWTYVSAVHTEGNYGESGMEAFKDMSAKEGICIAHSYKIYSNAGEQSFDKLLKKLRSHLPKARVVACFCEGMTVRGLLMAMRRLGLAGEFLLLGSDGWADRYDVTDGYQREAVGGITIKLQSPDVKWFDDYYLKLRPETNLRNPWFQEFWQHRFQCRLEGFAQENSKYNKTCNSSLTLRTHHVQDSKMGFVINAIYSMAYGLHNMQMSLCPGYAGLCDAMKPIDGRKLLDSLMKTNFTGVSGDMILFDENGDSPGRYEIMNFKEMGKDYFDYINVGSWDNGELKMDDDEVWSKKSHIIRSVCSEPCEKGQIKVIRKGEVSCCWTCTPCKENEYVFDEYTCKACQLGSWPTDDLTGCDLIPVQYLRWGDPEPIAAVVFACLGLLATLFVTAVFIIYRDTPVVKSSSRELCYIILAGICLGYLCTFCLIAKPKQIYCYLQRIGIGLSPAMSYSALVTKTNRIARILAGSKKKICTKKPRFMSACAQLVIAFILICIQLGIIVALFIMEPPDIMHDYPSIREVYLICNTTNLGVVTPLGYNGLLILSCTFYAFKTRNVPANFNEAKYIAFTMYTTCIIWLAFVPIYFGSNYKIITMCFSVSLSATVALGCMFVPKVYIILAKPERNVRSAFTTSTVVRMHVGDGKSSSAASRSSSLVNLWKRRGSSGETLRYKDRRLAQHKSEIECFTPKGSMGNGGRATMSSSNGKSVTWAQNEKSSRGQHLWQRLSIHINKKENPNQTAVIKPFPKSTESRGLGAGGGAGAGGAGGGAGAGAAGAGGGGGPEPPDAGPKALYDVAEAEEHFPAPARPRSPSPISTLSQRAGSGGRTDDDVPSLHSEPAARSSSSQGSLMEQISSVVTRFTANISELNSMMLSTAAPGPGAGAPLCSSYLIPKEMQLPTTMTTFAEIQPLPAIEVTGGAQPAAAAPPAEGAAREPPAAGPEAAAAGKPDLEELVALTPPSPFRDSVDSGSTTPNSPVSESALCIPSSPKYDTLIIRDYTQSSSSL
# Experiment: [3H]-MPEP mGluR5 receptor binding assay (pig brain homogenate)
# Conditions: 5 nM [3H]-MPEP, read-out: IC50 mGluR5 Receptor (pig) [^3H]-MPEP Bond
# How it was run: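 Compounds at 10 μM competed with 5 nM [3H]-MPEP for binding to pig brain membranes (450 μg protein) for 60 min at room temperature in pH 8.0 Hepes buffer. Bound radioactivity was collected on glass-fibre filters and read by β-counting, with 10 μM unlabelled MPEP giving non-specific binding.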
row,Compound,IC50 [µM]
1,"CS(=O)(=O)N(Cc1c(F)ccc(-c2ccc3ncnc(NC4CC4)c3c2)c1F)C1CC1 [Example 246, N-cyclopropyl-N-(3-(4-(cyclopropylamino)quinazolin-6-yl)-2,6-difluorobenzyl)methane sulfonamide]",0.35
2,"O=C1COCC(=O)N1Cc1cccc(-c2ccc3ncnc(NC4CC4)c3c2)c1 [Example 212, 4-(3-(4-(cyclopropylamino)quinazolin-6-yl)benzyl)morpholine-3,5-dione]",0.1
3,"COCC(=O)N(Cc1cccc(-c2ccc3ncnc(NC4CC4)c3c2)c1)C1CC1 [Example 252, N-cyclopropyl-N-[3-(4-cyclopropylamino-quinazolin-6-yl)-benzyl]-2-methoxy-acetamide]",0.92
4,"CC(=O)N(Cc1cccc(-c2ccc3ncnc(NC4CC4)c3c2)c1)c1ccccc1 [Example 207, N-(3-(4-(cyclopropylamino)quinazolin-6-yl)benzyl)-N-phenylacetamide hydrochloride]",7.17
5,"CS(=O)(=O)N(Cc1cccc(-c2ccc3ncnc(NC4CC4)c3c2)c1)Cc1ccco1 [Example 215, N-(3-(4-(cyclopropylamino)quinazolin-6-yl)benzyl)-N-(furan-2-yl-methyl)methane sulfonamide]",3.61

# Next, values leading:
row,IC50 [µM],Compound
1,0.05,"O=C1CCC(=O)N1Cc1cccc(-c2ccc3ncnc(NC4CCC4)c3c2)c1 [Example 872, 1-(3-(4-(cyclobutylamino)quinazolin-6-yl)benzyl)pyrrolidine-2,5-dione hydrochloride]"
2,0.01,"O=C(N(Cc1cc(-c2ccc3ncnc(NC4CC4)c3c2)ccc1F)C1CC1)C(F)(F)F [Example 870, N-cyclopropyl-N-(5-(4-(cyclopropylamino)quinazolin-6-yl)-2-fluorobenzyl)-2,2,2-trifluoroacetamide]"
3,9.57,"CN1CCN(Cc2cccc(-c3ccc4ncnc(NC5CC5)c4c3)c2)C1=O [Example 877, 1-(3-(4-(cyclopropylamino)quinazolin-6-yl)benzyl)-3-methylimidazolidin-2-one]"

# Same assay, conditions: 10 μM compound, 5 nM [3H]-MPEP
row,% Inhibition of mGluR5 Receptor (pig) [^3H]-MPEP Bond at 10 μM [%],Compound
1,86,"O=S(=O)(c1ccccc1)N(Cc1cc(-c2ccc3ncnc(NC4CC4)c3c2)ccn1)C1CC1 [Example 731, N-cyclopropyl-N-((4-(4-(cyclopropylamino)quinazolin-6-yl)pyridin-2-yl)methyl)benzole sulfonamide]"
2,93,"O=S(=O)(c1ccc(Cl)cc1Cl)N(Cc1cc(-c2ccc3ncnc(NC4CC4)c3c2)ccc1Cl)C1CC1 [Example 794, 2,4-dichloro-N-(2-chloro-5-(4-(cyclopropylamino)quinazolin-6-yl)benzyl)-N-cyclopropyl benzole sulfonamide]"
3,93,"O=C(c1ccccc1)N(Cc1cc(-c2ccc3ncnc(NC4CC4)c3c2)ccc1Cl)C1CC1 [Example 783, N-(2-chloro-5-(4-(cyclopropylamino)quinazolin-6-yl)benzyl)-N-cyclopropyl benzamide]"

row,Compound,% Inhibition of mGluR5 Receptor (pig) [^3H]-MPEP Bond at 10 μM [%]
1,"CC(C)S(=O)(=O)N(Cc1cc(-c2ccc3ncnc(NC4CC4)c3c2)ccc1Cl)C1CC1 [Example 854, N-(2-chloro-5-(4-(cyclopropylamino)quinazolin-6-yl)benzyl)-N-cyclopropyl propane-2-sulfonamide]",75

# Same assay, conditions: 10 μM compound, 5 nM [3H]-MPEP, read-out: % Inhibition of mGluR5 Receptor (pig) [^3H]-MPEP Bond at 10 μM
row,Compound,inhibition at 10 µM [%]
1,"Cc1nc(NC2CC2)c2cc(-c3cccc(CN(C(=O)c4ccc(C(F)(F)F)cc4F)C4CC4)c3)ccc2n1 [Example 454, N-cyclopropyl-N-(3-(4-(cyclopropylamino)-2-methylquinazolin-6-yl)benzyl)-2-fluoro-4-(trifluoromethyl)benzamide]",34
2,"Cc1nc(NC2CC2)c2cc(-c3cccc(CN(C(=O)c4cccc(C(F)(F)F)c4)C4CC4)c3)ccc2n1 [Example 462, N-cyclopropyl-N-(3-(4-(cyclopropylamino)-2-methylquinazolin-6-yl)benzyl)-3-(trifluoromethyl)benzamide]",48
3,"Cc1cc2ncnc(NC3CC3)c2cc1-c1cccc(CN(C(=O)C(C)(C)C)C2CC2)c1 [Example 719, N-cyclopropyl-N-(3-(4-(cyclopropylamino)-7-methylquinazolin-6-yl)benzyl)pivalamide]",84
4,"Cc1cc(C(=O)N(Cc2cc(-c3ccc4nc(C)nc(NC5CC5)c4c3)ccc2F)C2CC2)n(C)n1 [Example 542, N-cyclopropyl-N-(5-(4-(cyclopropylamino)-2-methylquinazolin-6-yl)-2-fluorobenzyl)-1,3-dimethyl-1H-pyrazole-5-carboxamide]",33
5,"O=C(Cc1ccccc1)N(Cc1cc(-c2ccc3ncnc(NC4CC4)c3c2)ccc1F)C1CC1 [Example 406, N-cyclopropyl-N-(5-(4-(cyclopropylamino)quinazolin-6-yl)-2-fluorobenzyl)-2-phenylacetamide]",95
6,"O=C(c1ccc(Cl)cc1)N(Cc1cccc(-c2ccc3ncnc(NC4CC4)c3c2)c1)C1CC1 [Example 160, 4-chloro-N-cyclopropyl-N-[3-(4-cyclopropylamino-quinazolin-6-yl)-benzyl]-benzamide]",70
7,"CCCN(Cc1cccc(-c2ccc3ncnc(Nc4ccccc4)c3c2)c1)C(=O)Cc1ccccn1 [Example 106, N-[3-(4-phenylamino-quinazolin-6-yl)-benzyl]-N-propyl-2-pyridin-2-yl-acetamide]",39
8,"O=C(c1ccc(F)cc1F)N(Cc1cccc(-c2cc(F)c3ncnc(NC4CC4)c3c2)c1)C1CC1 [Example 619, N-cyclopropyl-N-(3-(4-(cyclopropylamino)-8-fluoroquinazolin-6-yl)benzyl)-2,4-difluorobenzamide]",98
9,"CCCN(Cc1cccc(-c2ccc3ncnc(Nc4ccccc4)c3c2)c1)C(=O)c1cccnc1 [Example 117, N-[3-(4-phenylamino-quinazolin-6-yl)-benzyl]-N-propyl-nicotinamide]",68
10,"CCCN(Cc1cccc(-c2ccc3ncnc(Nc4ccccc4)c3c2)c1)C(=O)c1ccc(OC)cc1 [Example 94, 4-methoxy-N-[3-(4-phenylamino-quinazolin-6-yl)-benzyl]-N-propyl-benzamide]",75

# More lines, now with the values ahead:
row,inhibition at 10 µM [%],Compound
1,82,"COCC(=O)N(Cc1cc(-c2ccc3ncnc(NC(C)(C)C)c3c2)ccc1F)C1CC1 [Example 846, N-(5-(4-(tert-butylamino)quinazolin-6-yl)-2-fluorobenzyl)-N-cyclopropyl-2-methoxyacetamide]"
2,47,"c1cc(Cn2cccc2)cc(-c2ccc3ncnc(NC4CC4)c3c2)c1 [Example 876, 6-(3-((1H-pyrrol-1-yl)methyl)phenyl)-N-cyclopropylquinazoline-4-amine]"
3,80,"O=S(=O)(Cc1ccccc1)N(Cc1cc(-c2ccc3ncnc(NC4CC4)c3c2)ccc1Cl)C1CC1 [Example 771, N-(2-chloro-5-(4-(cyclopropylamino)quinazolin-6-yl)benzyl)-N-cyclopropyl-1-phenylmethane sulfonamide]"
4,42,"O=C(c1cc(Cl)cc(Cl)c1)N(Cc1cc(-c2ccc3ncnc(NC4CC4)c3c2)ccn1)C1CC1 [Example 750, 3,5-dichloro-N-cyclopropyl-N-((4-(4-(cyclopropylamino)quinazolin-6-yl)pyridin-2-yl)methyl)benzamide]"
